Source: patent US8044204B2, “8-methoxy-9H-isothiazolo[5,4-b]quinoline-3,4-diones and related compounds as anti-infective agents” (Achillion Pharmaceuticals, Inc., priority 2005, dated 2011)
Structures can show the parent of a compound that is named as a salt.

Key:
Assay type in all cases: cell-based
MRSA strain ATCC 700699 = assay: Minimum Inhibitory Concentration (MIC) assay, Methicillin Resistant S. Aureus; settings: Staphylococcus aureus; broth microdilution; read-out: MIC against Methicillin Resistant S. Aureus
From the text: It has been unexpectedly discovered that substitution of compounds of Formula I and Formula II with a methoxy substituent at the R8 position increases the anti-microbial activity of the compound against Methicillin resistant Staphylococcus Aureus bacteria while at the same time decreasing the cellular toxicity of the compound. The simultaneous increase in compound activity and decrease in compound toxicity provides a greater therapeutic range for compounds of Formula I and Formula II in which R8 is methoxy; i.e. the range of doses of such compounds that will produce beneficial effects without harmful side effects is increased. […] Therapeutic range is determined using a standard assay of cytotoxicity such as the Alamar blue assay provided in Example 10.
(§1) The antimicrobial activity of the compounds of the invention may be evaluated by a number of methods, including the following visual minimum inhibitory concentration (MIC) assay. This assay determines the minimum concentration of compound required to inhibit growth of a bacterial strain.
(§2) Minimum Inhibitory Concentration (MIC) Assay
(§3) Whole-cell antibacterial activity is determined by broth microdilution using conditions recommended by the NCCLS (see National Committee for Clinical Laboratory Standards. 2001. Performance standards for antimicrobial susceptibility testing: 11th informational supplement. Vol. 21, no. 1, M100-S11. National Committee for Clinical Laboratory Standards, Wayne, Pa.). Test compounds are dissolved in DMSO and diluted 1:50 in Mueller-Hinton II broth (Becton-Dickinson) to produce a 256 μg/ml stock solution. In a 96-well microtiter plate, the compound solution is serially two-fold diluted in Mueller-Hinton II broth. After the compounds are diluted, a 50 μl aliquot of the test organism (˜1×10^6 cfu/mL) is added to each well of the microtiter plate. The final test concentrations ranges from 0.125-128 μg/mL. Inoculated plates are incubated in ambient air at 37° C. for 18 to 24 hours. The organisms selected for testing included laboratory strains S. aureus ATCC 29213 and E. coli ATCC 25922 (strains purchased from American Type Culture Collection, Manassas, Va.), S. aureus FQR700699, and Paeruginosa 27853. The minimum inhibitory concentration (MIC) is determined as the lowest concentration of compound that inhibited visible growth of the test organism.

S. aureus ATCC 29213 = assay: Minimum Inhibitory Concentration (MIC) assay, S. aureus; settings: Staphylococcus aureus, ATCC29213; broth microdilution; read-out: MIC against S. Aureus
Description: as §1, §2, §3

E. coli ATCC 25922 = assay: Minimum Inhibitory Concentration (MIC) assay, E. coli; settings: Escherichia coli, ATCC25922; broth microdilution; read-out: MIC against E. coli
Description: as §1, §2, §3

Measured: MIC

COc1c(N(C)C)c(F)cc2c(=O)c3c(=O)[nH]sc3n(C3CC3)c12 [Compound 42, 9-cyclopropyl-7-(dimethyl-amino)-6-fluoro-8-methoxyiso-thiazolo[5,4-b]quinoline-3,4(2H,9H)-dione]
≤ 1 µg/mL: all assays above

COc1c(N2CC[C@@H](C(C)(C)N)C2)ccc2c(=O)c3c(=O)[nH]sc3n(C3CC3)c12 [Compound 54, (R)-7-(3-(2-aminopropan-2-yl)pyrrolidin-1-yl)-9-cyclopropyl-8-methoxyiso-thiazolo[5,4-b]quinoline-3,4(2H,9H)-dione, hydrochloride]
≤ 1 µg/mL: all assays above

COc1c(N2CC[C@@H](C3(N)CC3)C2)c(F)cc2c(=O)c3c(=O)[nH]sc3n(C3CC3)c12 [Compound 55, (R)-7-(3-(1-amino-cyclopropyl)pyrrolidin-1-yl)-9-cyclopropyl-6-fluoro-8-methoxyiso-thiazolo[5,4-b]quinoline-3,4(2H,9H)-dione, hydrochloride]
≤ 1 µg/mL: all assays above

COc1c(N2CC[C@@H](C3(N)CC3)C2)ccc2c(=O)c3c(=O)[nH]sc3n(C3CC3)c12 [Compound 56, (R)-7-(3-(1-aminocyclo-propyl)pyrrolidin-1-yl)-9-cyclopropyl-8-methoxy-isothia-zolo[5,4-b]quinoline-3,4(2H,9H)-dione, hydrochloride]
≤ 1 µg/mL: all assays above

COc1c(N2CCC(C(C)(C)N)C2)c(F)cc2c(=O)c3c(=O)[nH]sc3n(C3CC3)c12 (stereo not drawn) [Compound 57, 7-(3-(2-aminopropan-2-yl)pyrrolidin-1-yl)-9-cyclopropyl-6-fluoro-8-methoxyiso-thiazolo[5,4-b]quinoline-3,4(2H,9H)-dione]
≤ 1 µg/mL: all assays above

[2H]C1([2H])CC(C(C)(C)N)C([2H])([2H])N1c1c(F)cc2c(=O)c3c(=O)[nH]sc3n(C3CC3)c2c1OC (stereo not drawn) [Compound 71, 7-(3-(2-amino-propan-2-yl)-2,2,5,5-tetradeuterated-pyrrolidin-1-yl)-9-cyclopropyl-6-fluoro-8-methoxyiso-thiazolo[5,4-b]quinoline-3,4(2H,9H)-dione]
≤ 1 µg/mL: all assays above

COc1c(N2CC[C@@H](C(C)N)C2)c(F)cc2c(=O)c3c(=O)[nH]sc3n(C3CC3)c12 (stereo partly drawn) [Compound 73, (R)-7-(3-(1-aminoethyl)pyrrolidin-1-yl)-9-cyclopropyl-6-fluoro-8-methoxyiso-thiazolo[5,4-b]quinoline-3,4(2H,9H)-dione]
≤ 1 µg/mL: all assays above

CNC(C)[C@@H]1CCN(c2c(F)cc3c(=O)c4c(=O)[nH]sc4n(C4CC4)c3c2OC)C1 (stereo partly drawn) [Compound 74, (R)-9-cyclopropyl-6-fluoro-8-methoxy-7-(3-(1-(methyl-amino)ethyl)-pyrrolidin-1-yl)isothia-zolo[5,4-b]quinoline-3,4(2H,9H)-dione]
≤ 1 µg/mL: all assays above

CC(C)(N)C1CCN(c2c(F)cc3c(=O)c4c(=O)[nH]sc4n(C4CC4)c3c2F)C1 (stereo not drawn) [Compound 75, 7-(3-(2-amino-propan-2-yl)pyrrolidin-1-yl)-9-cyclo-propyl-6,8-difluoroiso-thiazolo[5,4-b]quinoline-3,4(2H,9H)-dione]
≤ 1 µg/mL: all assays above

CCNC(C)[C@@H]1CCN(c2c(F)cc3c(=O)c4c(=O)[nH]sc4n(C4CC4)c3c2OC)C1 (stereo partly drawn) [Compound 77, (R)-9-cyclo-propyl-7-(3-(1-(ethyl-amino)ethyl)pyrrolidin-1-yl)-6-fluoro-8-methoxyiso-thiazolo[5,4-b]quinoline-3,4(2H,9H)-dione]
≤ 1 µg/mL: all assays above

CNC[C@@H]1CCN(c2c(F)cc3c(=O)c4c(=O)[nH]sc4n(C4CC4)c3c2OC)C1 [Compound 87, (S)-9-cyclo-propyl-6-fluoro-8-methoxy-7-(3-((methylamino)-methyl)pyrrolidin-1-yl)isothia-zolo[5,4-b]quinoline-3,4(2H,9H)-dione]
≤ 1 µg/mL: all assays above

COc1c(N2CC[C@@H](CNC3CC3)C2)c(F)cc2c(=O)c3c(=O)[nH]sc3n(C3CC3)c12 [Compound 88, (S)-9-cyclo-propyl-7-(3-((cyclopropyl-amino)-methyl)-pyrrolidin-1-yl)-6-fluoro-8-methoxyiso-thiazolo[5,4-b]quinoline-3,4(2H,9H)-dione]
≤ 1 µg/mL: all assays above

CCNC(C)(C)[C@@H]1CCN(c2c(F)cc3c(=O)c4c(=O)[nH]sc4n(C4CC4)c3c2OC)C1 [Compound 89, (R)-9-cyclo-propyl-7-(3-(2-(ethyl-amino)propan-2-yl)pyrrolidin-1-yl)-6-fluoro-8-methoxyiso-thiazolo[5,4-b]quinoline-3,4(2H,9H)-dione]
≤ 1 µg/mL: all assays above

COc1c(N2CC[C@@H](C(C)NC3CC3)C2)c(F)cc2c(=O)c3c(=O)[nH]sc3n(C3CC3)c12 (stereo partly drawn) [Compound 93, (R)-9-cyclo-propyl-7-(3-(1-(cyclo-propylamino)ethyl)-pyrrolidin-1-yl)-6-fluoro-8-methoxyiso-thiazolo[5,4-b]quinoline-3,4(2H,9H)-dione]
≤ 1 µg/mL: all assays above

COc1c(N2CC[C@H](C(C)NC3CC3)C2)c(F)cc2c(=O)c3c(=O)[nH]sc3n(C3CC3)c12 (stereo partly drawn) [Compound 94, (S)-9-cyclo-propyl-7-(3-(1-(cyclo-propylamino)ethyl)-pyrrolidin-1-yl)-6-fluoro-8-methoxyiso-thiazolo[5,4-b]quinoline-3,4(2H,9H)-dione]
≤ 1 µg/mL: all assays above

COc1c(N2CC(C)C(CN)C2)c(F)cc2c(=O)c3c(=O)[nH]sc3n(C3CC3)c12 (stereo not drawn) [Compound 95, 7-(3-(amino-methyl)-4-methyl-pyrrolidin-1-yl)-9-cyclopropyl-6-fluoro-8-methoxyiso-thiazolo[5,4-b]quinoline-3,4(2H,9H)-dione]
≤ 1 µg/mL: all assays above

COc1c(N2CC(C)C(C#N)C2)c(F)cc2c(=O)c3c(=O)[nH]sc3n(C3CC3)c12 (stereo not drawn) [Compound 100, 1-(9-cyclo-propyl-6-fluoro-8-methoxy-3,4-dioxo-2,3,4,9-tetrahydroisothia-zolo[5,4-b]quinolin-7-yl)-4-methyl-pyrrolidine-3-carbonitrile]
≤ 1 µg/mL: all assays above

COc1c(N2CC[C@@H](C(C)N)C2)ccc2c(=O)c3c(=O)[nH]sc3n(C3CC3)c12 (stereo partly drawn) [Compound 102, (R)-7-(3-(1-aminoethyl)-pyrrolidin-1-yl)-9-cyclopropyl-8-methoxyiso-thiazolo[5,4-b]quinoline-3,4(2H,9H)-dione]
≤ 1 µg/mL: all assays above

CNC(C)[C@@H]1CCN(c2ccc3c(=O)c4c(=O)[nH]sc4n(C4CC4)c3c2OC)C1 (stereo partly drawn) [Compound 103, (R)-9-cyclo-propyl-8-methoxy-7-(3-(1-(methylamino)-ethyl)pyrrolidin-1-yl)isothia-zolo[5,4-b]quinoline-3,4(2H,9H)-dione]
≤ 1 µg/mL: all assays above
